Where “and” joins values, the source holds several entries; their conditions need not be identical. Equal entries are not always repeated. Structures can show the parent of a compound that is named as a salt. Where two headings read alike, the source gives them in different places.
Key:
NMDA receptor [1] = test: Whole cell patch clamp, NMDA-induced current in cultured chick spinal cord neurons; format: cell-based; settings: for average inhibition of the current induced by 30 μM NMDA: 50 μM steroid
Procedure: Cultures of dissociated spinal cord neurons were prepared as previously described (Farb, D. H., et al., J. Cell Biol., 80:651-661 (1979)). Briefly, the dissociated cells from 7-day chick embryos were plated on collagen-coated 35-mm tissue culture dishes in Eagle's minimum essential medium supplemented with 2.4 mM glutamine, 10% (v/v) heat-inactivated horse serum, 5% (v/v) chick embryo extract and antibiotics. Cultures were maintained in a humidified atmosphere of 5% CO2, 95% air at 37°. Cytarabine (1 μM) was added to the culture medium after 36 hr. of the initial plating to inhibit the proliferation of non-neuronal cells. One day later, this medium was replaced with a similar medium supplemented with 20.5 mM glucose, 19 mM KCl, and 2.5% chick embryo extract. Fresh medium was added twice weekly. Cultured neurons were used in experiments within 2-4 weeks after plating.
Experiments were carried out in 35-mm tissue culture dishes on the stage of an inverted phase contrast microscope. Whole cell currents were recorded by the whole cell variant of the patch clamp technique (Hamill, O. P., et al., Pfagers Arch. 891:85-100 (1981)). Patch electrodes had tip openings of about […] and resistances of 3-8 M.OMEGA. using an intracellular solution comprised of the following (in mM): 140 CsCl, 11 EGTA, and 10 HEPES (pH adjusted to 7.2 with CsOH). In experiments in which a high concentration of glycine was used, the intracellular solution was replaced with a low chloride (10 mM) pipette solution. This solution contained the following (in mM): 140 potassium gluconate, 10 KCl, 8 sodium gluconate, 11 EGTA, and 10 HEPES (pH adjusted to 7.2 with KOH). To prevent a marked run-down of NMDA-induced current at high NMDA concentrations, 4 mM potassium ATP was included in the intracellular solution. The bath solution contained the following (in mM): 150 NaCl, 4 KCl, 1 CaCl2, and 10 HEPES (pH adjusted to 7.2 with NaOH). No glycine was added to the solutions containing NMDA, because no additional glycine was required to obtain a robust NMDA response, and there was no effect of a maximal concentration (10 μM) of glycine on 5β3αS inhibition of the NMDA response. All experiments were performed at room temperature (23-25° C.).
Recordings were made using an Axopatch 1B patch clamp apparatus (Axon Instruments, Burlingame, Calif.). Cells with series resistances greater than 10 M.OMEGA. were rejected. After partial compensation, series resistances were between 3.5 and 6 M.OMEGA.. The holding potential was maintained at -70 mV unless otherwise noted. Currents were filtered at 1 kHz using an eight-pole Bessel filter (-3 dB) and digitized ([…]) using an on-line data acquisition system (pClamp, Axon Instruments).
Drug solutions were applied to single neurons by pressure ejection (15 psi) from seven-barrel pipettes. Seven-barrel pressure pipettes were positioned approximately […] from the neuronal soma. Under these conditions, the drug solution in the pressure pipette rapidly and effectively replaces the solution surrounding the target neurons with less than 10% dilution (Choi, D. W., et al., Nature (Lond.) 269:342-344 (1977); Chan, C. Y., et al., Life Sci., 83:2061-2069 (1983); Chan, C. Y. and Farb, D. H., J. Neurosci., 5:2365-2373 (1985)). All drugs were obtained from Sigma, with the except of AMPA hydrobromide (Research Biochemicals) and steroids (Steraloids). Stock solutions of steroids were prepared in dimethyl sulfoxide, the final concentration of which was 0.5% (v/v). To obviate the possible effects of dimethyl sulfoxide on the relevant agonist-induced currents, all other drug solutions including NMDA, kainate, AMPA and external buffer (in the pressure pipette) also contained 0.5% dimethyl sulfoxide. […]

[2] = molecular target: T1, recombinant NMDA receptors (NR1100 and NR2A subunits) (Rattus norvegicus, UniProt P35439+Q00959); test: Two electrode voltage-clamp of Xenopus oocytes expressing recombinant NMDA receptors; format: cell-based
T1 construct: expressed in transfected cells; host or cells: Xenopus laevis oocytes injected with in vitro transcribed mRNA
Procedure: RNA preparation. mRNA were prepared through in vitro transcription of NR1100 and NR2A cDNAs using the mMessage mMachine kit (Ambion, Tex.). NR1100 and NR2A clones were kindly provided by Dr. Zukin and Dr. Nakanishie.
Xenopus expression system. Female, oocyte positive Xenopus laevis frogs were purchased from Nasco, Inc. (WI). The frogs were kept on a 12/12 light-dark cycle and maintained on a diet of chopped calf liver every 3 days. Prior to surgery, frogs were anesthetized in a 0.15% Tricaine solution (Sigma, Mo.) for 30-45 minutes. Ovarian sections containing the follicular oocytes were removed through a lateral abdominal incision and were immediately placed in calcium-free ND96 solution (in mM):96 NaCl; 1 MgCl2; 2 KCl; 5 Hepes; 2.5 pyruvate (pH adjusted to 7.4 with NaOH). Following a 2 hr. incubation in 0.2% collagenase type II (Sigma, Mo.) at room temperature, individual defolliculated oocytes were transferred into 60×15 mm glass petri dishes containing ND96 solution (in mM): 96 NaCl; 1 MgCl2; 2 KCl; 1.8 CaCl2; 5 Hepes; 2.5 pyruvate (pH adjusted to 7.4 with NaOH). The isolated oocytes were maintained in an incubator at 18° C. On the following date, batches of 20-40 selected oocytes (Dumont stage V and VI) were injected with 50 nl of prepared RNA solution (0.5 ng of NR1 and 12 ng of NR2A mRNAs per oocyte) using an electronic microinjector (Drummond, Pa.). The injected oocytes were used for electrophysiological experiments following 4-10 day incubation at 18° C.
Electrical recording and drug application. The ion current recordings were obtained in two electrodes voltage-clamp mode using an Axoclamp-2A amplifier (Axon Instruments, Inc., CA). The microelectrodes were fabricated with a programmed puller (Sutter Instrument Co., CA) from glass capillaries (Dagan, Minn.) and filled with 3M KCl solution. The resistance of filled microelectrodes was in the range of 2.5-3.5 M.OMEGA.. The oocytes were clamped at a holding potential of -70 mV. The membrane current was filtered at 500 Hz and sampled at 100 Hz frequency. The drugs were applied using a gravity driven external perfusion system. The data acquisition and external perfusion control were done using SuperScopeII software package (GW Instruments, MA). All experiments were performed at room temperature of 22-24° C.
The degree of modulation of the amino acid response by steroids, the percent change, was defined at (I'/I-1)×100%, where I and I' are respectively the agonist-induced currents in the absence and presence of steroid. Throughout, results are expressed as mean±SEM; statistical comparison of groups was carried out using Student's t test.

NMDA receptor [3] = settings: Wu et al. 1991, cited from earlier work

T1 sequence (Q00959 23-1464, other chains not shown): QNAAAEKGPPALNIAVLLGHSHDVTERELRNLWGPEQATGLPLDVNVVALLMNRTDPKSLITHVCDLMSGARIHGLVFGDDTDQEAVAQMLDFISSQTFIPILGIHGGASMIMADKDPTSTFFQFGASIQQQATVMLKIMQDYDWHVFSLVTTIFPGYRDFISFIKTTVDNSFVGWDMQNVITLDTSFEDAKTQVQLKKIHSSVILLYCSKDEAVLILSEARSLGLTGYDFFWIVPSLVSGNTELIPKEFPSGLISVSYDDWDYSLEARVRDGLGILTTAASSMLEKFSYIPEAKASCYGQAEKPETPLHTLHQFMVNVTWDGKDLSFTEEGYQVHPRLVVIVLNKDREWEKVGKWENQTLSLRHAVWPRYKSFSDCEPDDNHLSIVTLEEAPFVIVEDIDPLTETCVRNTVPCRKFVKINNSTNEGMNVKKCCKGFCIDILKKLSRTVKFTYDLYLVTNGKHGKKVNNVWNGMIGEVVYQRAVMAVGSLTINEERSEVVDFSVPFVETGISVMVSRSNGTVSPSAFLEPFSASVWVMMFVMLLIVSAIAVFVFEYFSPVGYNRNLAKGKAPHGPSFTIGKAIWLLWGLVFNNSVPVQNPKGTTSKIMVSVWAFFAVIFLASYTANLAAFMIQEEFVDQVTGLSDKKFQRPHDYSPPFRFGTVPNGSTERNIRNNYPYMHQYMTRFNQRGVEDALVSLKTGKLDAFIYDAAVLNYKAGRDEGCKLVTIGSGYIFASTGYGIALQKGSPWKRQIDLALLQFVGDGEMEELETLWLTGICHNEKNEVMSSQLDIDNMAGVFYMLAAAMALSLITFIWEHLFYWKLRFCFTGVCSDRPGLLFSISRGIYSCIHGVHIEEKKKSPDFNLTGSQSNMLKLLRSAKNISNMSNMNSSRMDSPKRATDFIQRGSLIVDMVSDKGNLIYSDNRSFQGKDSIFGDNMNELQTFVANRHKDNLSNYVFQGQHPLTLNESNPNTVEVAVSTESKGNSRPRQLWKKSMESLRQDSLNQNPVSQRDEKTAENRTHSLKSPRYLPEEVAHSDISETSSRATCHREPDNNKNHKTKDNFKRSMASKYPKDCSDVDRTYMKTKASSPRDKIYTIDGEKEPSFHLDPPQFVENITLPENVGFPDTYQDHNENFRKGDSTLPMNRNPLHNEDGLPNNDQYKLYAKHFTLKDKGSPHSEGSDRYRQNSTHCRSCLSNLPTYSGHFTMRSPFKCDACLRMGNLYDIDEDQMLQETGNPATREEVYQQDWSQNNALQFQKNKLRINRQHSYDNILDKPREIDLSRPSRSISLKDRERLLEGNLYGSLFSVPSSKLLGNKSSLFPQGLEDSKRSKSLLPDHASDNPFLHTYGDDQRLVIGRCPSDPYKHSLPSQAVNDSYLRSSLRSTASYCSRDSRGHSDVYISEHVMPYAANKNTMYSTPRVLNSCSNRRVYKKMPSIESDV

CC(=O)[C@H]1CC[C@H]2[C@@H]3CC[C@@H]4C[C@H](OS(=O)(=O)O)CC[C@]4(C)[C@H]3CC[C@]12C [5β3αS, 3α-hydroxy-5β-pregnan-20-one sulfate]
average inhibition of the current induced by 30 μM NMDA (NMDA receptor [1]; in the absence of glycine): 49.1±3.4% | average inhibition of the current induced by 30 μM NMDA (NMDA receptor [1]; with added 10 μM glycine): 51.3±3.5% | inhibition of the response to 30 μM NMDA (NMDA receptor [1]; 100 μM steroid applied with NMDA, holding potential -70 mV, sulfate): 66% and 66.1±2.7% | average inhibition of the NMDA-induced current (NMDA receptor [1]; 100 μM steroid, holding potential +50 mV): 62.0±2.8% | average inhibition of the NMDA-induced current (NMDA receptor [1]; 100 μM steroid, holding potential -70 mV, voltage dependence test): 63.2±2.7% | maximal inhibition of the 30 μM NMDA response (NMDA receptor [1]; curve-fit analysis): 101.1% | NMDA nH in the presence of steroid (NMDA receptor [1]; in the presence of 50 μM 5β3αS): 1.46 | EC50 (NMDA receptor [1]; read-out: EC50 for inhibition of the 30 μM NMDA response, concentration-response curve, curve-fit, 30 μM NMDA, sulfate): 62 µM and 62.1 µM | direct response to steroid applied alone (NMDA receptor [1]; steroid alone): did not produce any direct response | effect on NMDA responses of NR1100/NR2A injected oocytes [2]: had an inhibitory effect

CC(=O)C1CCC2C3CC=C4CC(OS(=O)(=O)O)CCC4(C)C3CCC12C (centres unmarked) [PS, pregnenolone sulfate]
potentiation of the NMDA response (NMDA receptor [3]): 197% | EC50 (NMDA receptor [3]; read-out: EC50 for potentiation of the NMDA response): 57 µM | average NMDA response with intracellular steroid (NMDA receptor [1]; 100 μM steroid in the electrode buffer): did not differ significantly from control | potentiation of the NMDA response (NMDA receptor [1]; 100 μM steroid in the presence of 10 μM arachidonic acid): 182±25% | potentiation of the NMDA response (NMDA receptor [1]; 100 μM steroid in the presence of 200 μM 5β3βS): still evident | potentiation of the NMDA induced current (NMDA receptor [1]; 100 μM steroid, after about 1 hour of 4 mM DTT): 165±26% | potentiation of the response to 30 μM NMDA (NMDA receptor [1]; 100 μM steroid, in the absence of spermine): 150±14% | potentiation of the NMDA response (NMDA receptor [1]; 100 μM steroid, in the presence of 100 μM spermine): 178±12% | potentiation of the 30 μM NMDA response (NMDA receptor [1]; after DTT plus NEM treatment): 103±23% | potentiation of the NMDA response (NMDA receptor [1]; after approximately 1 hour of exposure to 10 mM DTT): 161±12% | potentiation of the NMDA response by extracellularly applied steroid (NMDA receptor [1]; in the absence of intracellular PS): 158±24% | potentiation of the NMDA response by extracellularly applied steroid (NMDA receptor [1]; in the presence of intracellular PS (100 μM)): 152±23% | activation at 100 µM ([2]; 100 μM steroid, read-out: potentiation of a near maximal NMDA response (200 μM)): 292 ± 34%

From patent publication US6083941A, “Inhibition of NMDA receptor activity by pregnenolone sulfate derivatives” (Trustees of Boston University, priority 1998, dated 2000)
